Entries after “also recorded” stand apart in the source; their conditions may differ.
Legend:
[1] = tested on: ras^G12V p53^RNAi pten^RNAi apc^RNAi animals (adult hindgut); test: Dissemination (distant migration) after compound feeding, four-hit model; assay type: in vivo, Drosophila; conditions: for dissemination in combination with bortezomib: fed together with low non-toxic bortezomib (1 μM); for distant migration (dissemination into the abdominal cavity): four-hit model ras^G12V p53^RNAi pten^RNAi apc^RNAi, compounds fed for one week, single agent
Description: (§1) Targeted expression in the adult hindgut: Multigenic combinations were targeted to the adult hindgut using the hindgut specific gal4 line byn-gal4 (V. Hartenstein) and tub-gal80^ts (Bloomington). Crosses were kept at 16° C. to keep the transgenes silent during development and adult females were transferred to 29° C. to induce transgene expression. In addition, GFP and Dcr2 (Dicer 2) were co-expressed to mark the hindgut cells and to facilitate RNAi-mediated knock-down, respectively.
(§2) Compound Feeding: Compound treated food was made by diluting compound stocks (made in 100% DMSO) in semi-defined Drosophila medium to achieve a final concentration of 0.5% DMSO (empirically determined as the non-toxic DMSO dose in semi-defined Drosophila medium). Adult flies were kept on compound treated medium in standard Drosophila vials for 7 days (30 flies/vial, 1 ml food/vial) and provided with fresh compound food every other day.
Compound Feeding: Compounds used in this study were (stock concentrations and sources in parentheses) AZD6244 (200 mM, Selleck Chemicals), SL327 (200 mM, Tocris), GW5074 (100 mM, Tocris), Sorafenib (200 mM, LC Labs), LY294002 (200 mM, LC Labs), Rapamycin (200 mM, LC Labs), BEZ235 (20 mM, LC Labs), Dasatinib (200 mM, LC Labs), SP600125 (200 mM, LC Labs), Bortezomib (200 mM, LC Labs), Cisplatin (200 mM, Sigma), LBH589 (200 mM, LC Labs), Wortmannin (200 mM, LC Labs), PI-103-HCl (100 mM, Tocris), Everolimus (100 mM, LC Labs) and Enzastaurin (50 mM, LC Labs).
Imaging and Scoring: Fluorescence images were taken using a Leica TCS SPE confocal microscope and processed using the Leica LAS-AF software. Scoring and imaging of SA-β-gal staining was performed using an Olympus BX41 microscope and a Nikon DS-Ri1 camera. Distant migration was imaged and scored using a Leica MZ16F dissecting scope with a GFP filter under 10× magnification.
Statistical Analysis: Statistical significance for the distant migration assay was calculated using Fisher's exact test as this test allows the analysis of contingency tables where sample sizes are relatively small. Use of a 4×2 contingency table allowed pairwise comparisons of the distant migration phenotype, which has four phenotypic categories, between different genotypes and/or treatment conditions. Each experiment was performed in duplicate (n=25-30 for each replicate) and multiple times. Error bars indicate standard error of the mean.
Given the low success rate of drug approvals for colorectal cancer (3) the study herein asked whether differences in genetic complexity influence a tumor model's response to drugs. Sixteen compounds that target key cancer relevant pathways and cellular processes were selected (FIG. 11); many of these compounds are currently in clinical trials including for colorectal cancer (25-27). Commencing the day of transgene induction, animals were fed compounds for one week and then scored for issemination into the abdominal cavity. Final compound concentrations in the media ranged from 1 μM-1 mM, corresponding to approximately 10-200 ng/day/animal based on adult feeding rates (FIG. 11).

[2] = tested on: ras^G12V p53^RNAi apc^RNAi animals; test: Dissemination after compound feeding, ras^G12V p53^RNAi apc^RNAi triple; assay type: in vivo, Drosophila; conditions: single agent
Description: as §1
(§3) Compound Feeding: Compound treated food was made by diluting compound stocks (made in 100% DMSO) in semi-defined Drosophila medium to achieve a final concentration of 0.5% DMSO (empirically determined as the non-toxic DMSO dose in semi-defined Drosophila medium). Adult flies were kept on compound treated medium in standard Drosophila vials for 7 days (30 flies/vial, 1 ml food/vial) and provided with fresh compound food every other day. […]
(§4) Imaging and Scoring: Fluorescence images were taken using a Leica TCS SPE confocal microscope and processed using the Leica LAS-AF software. […] Distant migration was imaged and scored using a Leica MZ16F dissecting scope with a GFP filter under 10× magnification.
(§5) Statistical Analysis: Statistical significance for the distant migration assay was calculated using Fisher's exact test as this test allows the analysis of contingency tables where sample sizes are relatively small. […]

HCT116 cells = test: MTT viability assay, HCT116 cells; assay type: cell-based, human
Description: (§6) Cell culture: Parental DLD-1 and HCT-116 cell lines (ATCC) and their PI3K wildtype derivatives (DLD-1 WT and HCT116 WT) (38) that were obtained from Dr. Bert Vogelstein's laboratory were maintained using DMEM with 10% FBS. All experiments were done under low serum (2.5% FBS) conditions (38). MTT assay: Cells were grown in sterile 25 cm^2 flasks to 80% confluency, trypsinized, resuspended in 100 mL DMEM with 2.5% FBS and seeded in 96-well plates in equal numbers. After 24 hours, cells were treated with compounds diluted in DMEM with 2.5% FBS as indicated for 1, 2 or 3 days. MTT assay was performed by replacing compound containing medium with fresh DMEM with 2.5% FBS and 10 mg/ml MTT reagent (Thiazoyl Blue tetrazolium Bromide, Fisher Scientific) in PBS at a ratio of 5:1 (120 μl/well; 96-well plates). Cells are incubated at 37° C. for 3 hours, then the medium is removed and cells are incubated in MTT solvent (4 mM HCl, 0.1% NP40 in isopropanol) on a shaker. The amount of MTT formazan in the resulting solution is spectrophotometrically measured at […] (and a reference filter of 620 nM). Adjusted absorbance value for each well is calculated using the following formula: (OD590SAMPLE-OD590BLANK)−(OD620SAMPLE-OD620BLANK). Each experiment is done in quadruple and relative viability is expressed as fold change in adjusted absorbance compared to untreated and DMSO treated controls in each plate.

DLD-1 cells = test: MTT viability assay, DLD-1 cells; assay type: cell-based, human; conditions: for viability after bortezomib pre-treatment alone: doses that sensitize to BEZ235
Description: as §6

[3] = tested on: PI3K and TORC1 activity (p-4EBP); test: Western blot analysis of PI3K pathway activity in hindguts after compound treatment; assay type: in vivo, Drosophila; conditions: four-hit hindguts; for p-4EBP levels: seven days
Excerpt: Western Blot Analysis: Primary antibodies used were rabbit anti-Drosophila phospho-AKT (S505) (1:1000, Cell Signaling), rabbit anti-pan-AKT (1:1000, Cell Signaling), rabbit anti-phospho-4EBP (T37/46) (1:1000, Cell Signaling), rabbit anti-human phospho-AKT (Ser473) (1:1000, Cell Signaling), mouse anti-α-actin (1:1000, Cell Signaling) and mouse anti-Syntaxin (1:1000, DSHB). HRP-conjugated anti-mouse and anti-rabbit antibodies were used as secondary antibodies (1:5000, Cell Signaling). For signal detection, Immobilon Chemiluminescent HRP Substrate (Millipore) was used.
as §2
Western Blot Analysis: Tissue lysates for western analysis were made by grinding 10-20 hindguts in lysis buffer (50 mM Tris-HCl, 150 mM NaCl, 1 mM EDTA, 1% NP-40) supplemented with protease and phosphatase inhibitor cocktails (Sigma). Lysates were boiled for 10 minutes in SDS Sample buffer and reducing agent, resolved on SDS-Page and transferred using standard protocols. Cell lysates are prepared similarly. Protein concentrations were determined using BioRad Protein Assay Dye Reagent following manufacturer's instructions.

[4] = tested on: ras^G12V pten^RNAi animals; test: Dissemination after compound feeding, ras^G12V pten^RNAi double; assay type: in vivo, Drosophila; conditions: single agent
Description: as §1, §3, §4, §5

[5] = tested on: ras^G12V animals (adult hindgut); test: Dissemination (distant migration) into the abdominal cavity after compound feeding, ras^G12V model; assay type: in vivo, Drosophila; conditions: compounds fed for one week, single agent
Description: as §1, §3, §4, §5

PI3K pathway = test: Western blot of PI3K pathway activation in DLD-1 cells; assay type: cell-based, human; conditions: DLD-1 cells treated with bortezomib
Description: Western Blot Analysis: Primary antibodies used were rabbit anti-Drosophila phospho-AKT ([MUT]) (1:1000, Cell Signaling), rabbit anti-pan-AKT (1:1000, Cell Signaling), rabbit anti-phospho-4EBP (T37/46) (1:1000, Cell Signaling), rabbit anti-human phospho-AKT (Ser473) (1:1000, Cell Signaling), mouse anti-α-actin (1:1000, Cell Signaling) and mouse anti-Syntaxin (1:1000, DSHB). HRP-conjugated anti-mouse and anti-rabbit antibodies were used as secondary antibodies (1:5000, Cell Signaling). For signal detection, Immobilon Chemiluminescent HRP Substrate (Millipore) was used. […] All experiments were done under low serum (2.5% FBS) conditions (38). […] Lysates were boiled for 10 minutes in SDS Sample buffer and reducing agent, resolved on SDS-Page and transferred using standard protocols. Cell lysates are prepared similarly. Protein concentrations were determined using BioRad Protein Assay Dye Reagent following manufacturer's instructions.

[6] = tested on: ras^G12V p53^RNAi pten^RNAi apc^RNAi animals; conditions: Drosophila, in vivo, 7 days
Description: Targets, feeding doses and toxicity of compounds. a, List of compounds used for feeding experiments along with their targets, mechanisms of actions and concentrations used in the food. Estimated amount ingested was calculated based on our observations that adult females ingest approximately 0.2 μl of food per day (not shown). Estimated amount of ingested compound was also converted into mg/kg body weight/day using 1.1 mg as the average weight of an adult female. b, Survival curves of ras^G12V p53^RNAi pten^RNAi apc^RNAi animals fed the indicated compounds.

## Cn1c(=O)n(-c2ccc(C(C)(C)C#N)cc2)c2c3cc(-c4cnc5ccccc5c4)ccc3ncc21 [BEZ235]
[1]; four-hit model
  dissemination in combination with bortezomib: synergized
[1]; four-hit model, sequential feeding
  dissemination after sequential treatment, bortezomib followed by BEZ235: effective; also recorded: much more effective than concurrent feeding
[2]
  dissemination, response to BEZ235: rendered the animals sensitive to BEZ235
HCT116 cells; HCT116 cells, bortezomib pretreatment for 24 hours
  sensitivity to BEZ235 after pretreatment with bortezomib: sensitize the cells to BEZ235
HCT116 cells; HCT116 parental (Ras and PI3K active) vs HCT116-WT
  BEZ235 dose response, parental versus PI3K wildtype line: more resistant to BEZ235 than its PI3K pathway wildtype counterpart, HCT116-WT
DLD-1 cells; DLD-1 cells, bortezomib pretreatment for 24 hours
  sensitivity to BEZ235 after pretreatment with bortezomib: Increased sensitivity; also recorded: rendered DLD-1 cells sensitive to BEZ235 treatment; also recorded: sensitize the cells to BEZ235
DLD-1 cells; DLD-1 parental (Ras and PI3K active) vs DLD-1-WT
  BEZ235 dose response, parental versus PI3K wildtype line: more resistant to BEZ235 than the derivative line DLD-1-WT
[3]; combined with bortezomib
  p-4EBP levels: reduced p-4EBP back to baseline levels
[4]
  dissemination, response to BEZ235: sufficient to direct resistance to BEZ235

## Cc1[nH]c2ccccc2c1CCNCc1ccc(/C=C/C(=O)NO)cc1 [LBH589]
[1]
  distant migration (dissemination into the abdominal cavity): not against ras^G12V p53^RNAi pten^RNAi apc^RNAi at non-toxic doses
[5]
  distant migration (dissemination into the abdominal cavity): effective against ras^G12V

## Oc1cccc(-c2nc(N3CCOCC3)c3oc4ncccc4c3n2)c1 [P1103]
[1]; four-hit model
  dissemination in combination with bortezomib: synergized

## CC(C)C[C@H](NC(=O)[C@H](Cc1ccccc1)NC(=O)c1cnccn1)B(O)O [bortezomib]
[1]
  distant migration (dissemination into the abdominal cavity): only showed efficacy at doses that otherwise killed more than 70% of the animals
HCT116 cells; HCT116 cells, doses that sensitize to BEZ235
  viability after bortezomib pre-treatment alone: does not affect the viability; also recorded: has no effect on viability
DLD-1 cells; DLD-1 cells
  viability after bortezomib pre-treatment alone: did not affect survival
DLD-1 cells; DLD-1 cells, listed as Bortezomib
  viability after bortezomib pre-treatment alone: does not affect the viability; also recorded: has no effect on viability
PI3K pathway
  PI3K pathway activation status: activated the PI3K pathway
[3]; low doses of bortezomib
  PI3K and TORC1 activity: directed upregulation of PI3K and TORC1 activity
[3]; bortezomib treatment alone
  p-4EBP levels: increase in p-4EBP levels
[6]
  animals killed at doses showing efficacy: more than 70 % of the animals

## O=c1cc(N2CCOCC2)oc2c(-c3ccccc3)cccc12 [LY294002, 2-(4-morpholinyl)-8-phenyl-4H-1-benzopyran-4-one]
[1]; four-hit model
  dissemination in combination with bortezomib: synergized
[3]; combined with bortezomib
  p-4EBP levels: reduced p-4EBP back to baseline levels

Reference: patent publication US20160022757A1, “THERAPEUTIC METHODS FOR TREATING SOLID TUMORS AND RELATED DIAGNOSTIC METHODS” (ICAHN SCHOOL OF MEDICINE AT MOUNT SINAI, priority 2013, published 2016)
